# From PubChem BioAssay AID330 (DTP/NCI, 2004)
# Values joined by “and” are separate entries in the source; they are usually repeats but may differ in a detail not shown here. Identical values can stand only once. Toxic doses and inconclusive results are not listed.
# Tested on: P388 leukemia ip, CD2F1 mice, survival T/C
# Test: NCI In Vivo Anticancer Drug Screen. Data for tumor model P388 Leukemia (intraperitoneal) in CD2F1 (CDF1) mice
# Settings: endpoint: median survival time, higher = longer survival
# Method in brief: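 Mice carrying the transplanted tumor received test compound or vehicle. Survival was recorded in each group, and the value is the treated-group measurement divided by that of the vehicle-treated control group.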
# [1] = dose: 60.0 mg/kg/injection, schedule: Q01DX005 (ip), vehicle: Klucel (hydroxypropylcellulose) (HPC)
# [2] = dose: 50.0 mg/kg/injection, schedule: Q01DX009 (ip), vehicle: saline with Tween-80
# [3] = dose: 100.0 mg/kg/injection, schedule: Q01DX009 (ip), vehicle: saline with Tween-80
# [4] = dose: 200.0 mg/kg/injection, schedule: Q01DX009 (ip), vehicle: saline with Tween-80
# [5] = dose: 25.0 mg/kg/injection, schedule: Q01DX009 (ip), vehicle: saline with Tween-80
# [6] = dose: 50.0 mg/kg/injection, schedule: Q01DX005 (ip), vehicle: Klucel (hydroxypropylcellulose) (HPC)
# [7] = dose: 100.0 mg/kg/injection, schedule: Q01DX005 (ip), vehicle: Klucel (hydroxypropylcellulose) (HPC)
# [8] = dose: 200.0 mg/kg/injection, schedule: Q01DX005 (ip), vehicle: Klucel (hydroxypropylcellulose) (HPC)
# [9] = dose: 400.0 mg/kg/injection, schedule: Q01DX009 (ip), vehicle: saline with Tween-80
# [10] = dose: 60.0 mg/kg/injection, schedule: Q01DX005 (ip), vehicle: saline with Tween-80
# [11] = dose: 120.0 mg/kg/injection, schedule: Q01DX005 (ip), vehicle: saline with Tween-80
# [12] = dose: 240.0 mg/kg/injection, schedule: Q01DX005 (ip), vehicle: saline with Tween-80
structure (smiles),measurement,setting,value
COc1cccc2c1C(=O)c1c(O)c3c(c(O)c1C2=O)C[C@@](O)(C(=O)O)C[C@@H]3OC1CC(N)C(O)C(C)O1 (some centres undefined),T/C,"dose: 3.13 mg/kg/injection, schedule: Q01DX009 (ip), vehicle: water",88 % of control
same,T/C,"dose: 6.25 mg/kg/injection, schedule: Q01DX009 (ip), vehicle: water",123 % of control
same,T/C,"dose: 18.75 mg/kg/injection, schedule: Q01DX001 (ip), vehicle: water",114 % of control
same,T/C,"dose: 37.5 mg/kg/injection, schedule: Q01DX001 (ip), vehicle: water",121 % of control
same,T/C,"dose: 50.0 mg/kg/injection, schedule: Q01DX009 (ip), vehicle: water",155 % of control
same,T/C,"dose: 75.0 mg/kg/injection, schedule: Q01DX001 (ip), vehicle: water",114 % of control
same,T/C,"dose: 100.0 mg/kg/injection, schedule: Q01DX009 (ip), vehicle: water",158 % of control
same,T/C,"dose: 150.0 mg/kg/injection, schedule: Q01DX001 (ip), vehicle: water",122 % of control
same,T/C,"dose: 300.0 mg/kg/injection, schedule: Q01DX001 (ip), vehicle: water",123 % of control
O=c1[nH]c(=S)[nH]c2c(=O)[nH]c(=S)[nH]c12,T/C,"dose: 12.5 mg/kg/injection, schedule: Q01DX009 (ip), vehicle: Klucel (hydroxypropylcellulose) (HPC)",107 % of control
same,T/C,"dose: 25.0 mg/kg/injection, schedule: Q01DX009 (ip), vehicle: Klucel (hydroxypropylcellulose) (HPC)",101 % of control
same,T/C,"dose: 50.0 mg/kg/injection, schedule: Q01DX009 (ip), vehicle: Klucel (hydroxypropylcellulose) (HPC)",101 % of control and 111 % of control
C=C(C)[C@@H]1CC[C@]2(C(=O)O)CC[C@@]3(C)[C@]4(C)CC[C@@H]5[C@](C)(CC[C@@H](O)[C@@]5(C)C(=O)O)[C@H]4CC[C@]3(C)[C@@H]12,T/C,"dose: 15.0 mg/kg/injection, schedule: Q01DX005 (ip), vehicle: Klucel (hydroxypropylcellulose) (HPC)",104 % of control
same,T/C,"dose: 30.0 mg/kg/injection, schedule: Q01DX005 (ip), vehicle: Klucel (hydroxypropylcellulose) (HPC)",117 % of control
same,T/C,[1],117 % of control
Cc1ccc(Cc2ccc[nH]2)cc1,T/C,"dose: 100.0 mg/kg/injection, schedule: Q04DX002 (ip), vehicle: distilled water + Tween-80 + alcohol",100 % of control
same,T/C,"dose: 200.0 mg/kg/injection, schedule: Q04DX002 (ip), vehicle: distilled water + Tween-80 + alcohol",100 % of control
same,T/C,"dose: 400.0 mg/kg/injection, schedule: Q04DX002 (ip), vehicle: distilled water + Tween-80 + alcohol",103 % of control
CCCCOC(=O)CC(O)C(=O)OCCCC (centres undefined),T/C,[2],109 % of control
same,T/C,[3],119 % of control
same,T/C,[4],114 % of control
CC[N+](C)(C)c1nc(N(C)C)nc(N(C)C)n1,T/C,"dose: 6.0 mg/kg/injection, schedule: Q01DX005 (ip), vehicle: saline",108 % of control
same,T/C,"dose: 12.0 mg/kg/injection, schedule: Q01DX005 (ip), vehicle: saline",118 % of control
COc1ccc2c(c1)[nH]c1c(C)c3ccncc3c(C)c12,T/C,"dose: 18.75 mg/kg/injection, schedule: Q04DX002 (ip), vehicle: Klucel (hydroxypropylcellulose) (HPC)",95 % of control
same,T/C,"dose: 37.5 mg/kg/injection, schedule: Q04DX002 (ip), vehicle: Klucel (hydroxypropylcellulose) (HPC)",92 % of control
same,T/C,"dose: 75.0 mg/kg/injection, schedule: Q04DX002 (ip), vehicle: Klucel (hydroxypropylcellulose) (HPC)",90 % of control
same,T/C,"dose: 150.0 mg/kg/injection, schedule: Q04DX002 (ip), vehicle: Klucel (hydroxypropylcellulose) (HPC)",100 % of control
CN(C)CCN(C)CCN1C(=O)c2ccccc2C1=O,T/C,"dose: 100.0 mg/kg/injection, schedule: Q04DX002 (ip), vehicle: saline",102 % of control
same,T/C,"dose: 200.0 mg/kg/injection, schedule: Q04DX002 (ip), vehicle: saline",100 % of control
same,T/C,"dose: 400.0 mg/kg/injection, schedule: Q04DX002 (ip), vehicle: saline",100 % of control
CCCCN(CCCC)CC(O)c1c(OC)c2cc(Cl)ccc2c2ccc(Cl)cc12 (centres undefined),T/C,[5],94 % of control
same,T/C,[2],100 % of control
O=C(NC(Cc1ccc(Br)cc1)C(=O)O)c1ccc(Cl)cc1 (centres undefined),T/C,[6],100 % of control
same,T/C,[7],100 % of control
same,T/C,[8],102 % of control
CN(C)CC(CN(C)C)C(=O)c1ccc(O)cc1,T/C,"dose: 6.25 mg/kg/injection, schedule: Q01DX005 (ip), vehicle: saline",118 % of control
same,T/C,"dose: 12.5 mg/kg/injection, schedule: Q01DX005 (ip), vehicle: saline",105 % of control
same,T/C,"dose: 25.0 mg/kg/injection, schedule: Q01DX005 (ip), vehicle: saline",110 % of control
OCCN=Cc1ccccc1,T/C,"dose: 25.0 mg/kg/injection, schedule: Q01DX009 (ip), vehicle: saline sonified",90 % of control
same,T/C,"dose: 50.0 mg/kg/injection, schedule: Q01DX009 (ip), vehicle: saline sonified",104 % of control
same,T/C,"dose: 100.0 mg/kg/injection, schedule: Q01DX009 (ip), vehicle: saline sonified",104 % of control
CCCCCN(CCCCC)CC(C)(O)CNc1cc(OC)cc2cccnc12 (centres undefined),T/C,"dose: 50.0 mg/kg/injection, schedule: Q01DX005 (ip), vehicle: saline",95 % of control
same,T/C,"dose: 100.0 mg/kg/injection, schedule: Q01DX005 (ip), vehicle: saline",87 % of control
Cn1nnc(-c2ccc(C(=O)O)cc2)n1,T/C,[6],91 % of control
same,T/C,[7],91 % of control
CCCCOc1cccc2c(NCCCCNCCCNc3c4ccccc4nc4c(OCCCC)cccc34)c3ccccc3nc12,T/C,"dose: 0.63 mg/kg/injection, schedule: Q01DX009 (ip), vehicle: other",105 % of control
same,T/C,"dose: 1.25 mg/kg/injection, schedule: Q01DX009 (ip), vehicle: other",120 % of control
same,T/C,"dose: 2.5 mg/kg/injection, schedule: Q01DX009 (ip), vehicle: other",111 % of control
same,T/C,"dose: 5.0 mg/kg/injection, schedule: Q01DX009 (ip), vehicle: other",121 % of control
CP(=Nc1ccccc1)(c1ccccc1)c1ccccc1,T/C,"dose: 100.0 mg/kg/injection, schedule: Q01DX001 (ip), vehicle: saline with Tween-80",95 % of control
same,T/C,"dose: 200.0 mg/kg/injection, schedule: Q01DX001 (ip), vehicle: saline with Tween-80",99 % of control
same,T/C,"dose: 400.0 mg/kg/injection, schedule: Q01DX001 (ip), vehicle: saline with Tween-80",102 % of control
NC(Cc1c[nH]c2ccc([N+](=O)[O-])cc12)C(=O)O (centres undefined),T/C,[2],92 % of control
same,T/C,[3],91 % of control
same,T/C,[4],94 % of control
same,T/C,[9],91 % of control
CC(C)=Nn1c(=O)oc2cc(Cl)ccc2c1=O,T/C,[1],95 % of control
same,T/C,"dose: 120.0 mg/kg/injection, schedule: Q01DX005 (ip), vehicle: Klucel (hydroxypropylcellulose) (HPC)",100 % of control
same,T/C,"dose: 240.0 mg/kg/injection, schedule: Q01DX005 (ip), vehicle: Klucel (hydroxypropylcellulose) (HPC)",93 % of control
Nc1nc(-c2ccc(Cl)c(Cl)c2)cc(-c2cc(-c3ccc(Cl)c(Cl)c3)nc(N)n2)n1,T/C,[10],96 % of control
same,T/C,[11],95 % of control
same,T/C,[12],95 % of control
CCOCCOC(=O)c1nc2c(N)nc(-c3ccccc3)nc2nc1N,T/C,"dose: 15.0 mg/kg/injection, schedule: Q01DX009 (ip), vehicle: saline with Tween-80",98 % of control
same,T/C,"dose: 30.0 mg/kg/injection, schedule: Q01DX009 (ip), vehicle: saline with Tween-80",98 % of control
same,T/C,"dose: 60.0 mg/kg/injection, schedule: Q01DX009 (ip), vehicle: saline with Tween-80",91 % of control
CC(=O)Nc1ccc(S(=O)(=O)c2ccc(NC(C)=O)s2)s1,T/C,[6],98 % of control
same,T/C,[7],95 % of control
same,T/C,[8],89 % of control
NC(=S)c1cncnc1N,T/C,"dose: 25.0 mg/kg/injection, schedule: Q04DX003 (ip), vehicle: saline with Tween-80",102 % of control
same,T/C,"dose: 50.0 mg/kg/injection, schedule: Q04DX003 (ip), vehicle: saline with Tween-80",99 % of control
same,T/C,"dose: 100.0 mg/kg/injection, schedule: Q04DX003 (ip), vehicle: saline with Tween-80",104 % of control
CC(=O)SCc1nc2ccccc2[nH]1,T/C,[5],107 % of control
same,T/C,[2],105 % of control
same,T/C,[3],108 % of control
CCN(CC)c1ccc(C=C2C(=O)NC(=S)NC2=O)cc1,T/C,"dose: 25.0 mg/kg/injection, schedule: Q01DX005 (ip), vehicle: Klucel (hydroxypropylcellulose) (HPC)",101 % of control
same,T/C,[6],100 % of control
same,T/C,[7],101 % of control
same,T/C,[8],100 % of control
O=C1CCCCCCCCCCC1Br (centres undefined),T/C,[3],100 % of control
same,T/C,[4],99 % of control
same,T/C,[9],105 % of control
COC(=O)/C=C1\SC(OC)(N(C)c2ccccc2)N(C)C1=O (centres undefined),T/C,[10],90 % of control
same,T/C,[11],98 % of control
same,T/C,[12],91 % of control
